For assay [1], the target named is T1, NR1A/NR2B NMDA receptor subtype (Rattus norvegicus, UniProt P35439+Q00960).
T1 construct: buffy coat membrane fraction was prepared from frozen adult rat forebrains; tissue Zivic-Miller Laboratories, Inc; host or cells: adult rat forebrain membranes
In words: [3H]Ifenprodil binding assay (IFPNR), rat forebrain membranes. The following applies: Table 1, 4 nM [3H]-ifenprodil, read-out: IFPNR (IC50 μM). On the procedure: b. [^3H]Ifenprodil Binding Assay (IFPNR) Protocol:
Ifenprodil, [phenyl-^3H]-(specific activity, 66.2 Ci/mmol) was purchased from Dupont NEN Research Products (Boston, Mass.). Ifenprodil tartrate was purchased from Research Biochemicals International (Natick, Mass.). HEPES, glutamate and glycine were purchased from Sigma Chemical Co. (St. Louis, Mo.).
All buffers and reagents used in assay incubations or to dissolve drugs were prepared using water purified through a Milli-Q reverse osmosis system (Millipore Corp., Bedford, Mass.) and treated with UV emissions. Prior to use in the assays buffers were further filtered through a sterile Coming filtration unit (Coming Glass Works, Coming, N.Y.) containing a 0.2 micron filter. Buffer used to rinse the membranes on the assay filters was prepared with purified water, but was not refiltered and was stored no longer than 5 days. Stock solutions of the drugs (usually 10 mM) were dissolved in 20 mM HEPES-KOH buffer pH 7.4 (assay buffer) with the addition of 1 to 5 μL of glacial AcOH, if needed to keep them in solution. Eliprodil was used as the reference NMDA antagonist. A stock solution of eliprodil was prepared, and was buffered with the addition of 10% DMSO. All subsequent dilutions from the stock solution were made in buffer.
An extensively washed buffy coat membrane fraction was prepared from frozen adult rat forebrains (Zivic-Miller Laboratories, Inc., Zelienople, Pa.) as described by Coughenour L. L.; Cordon, J. J., J. Pharmacol. Exp. Ther., 1997;280:584-592, and stored at −80° C. On the day of the assay, pellets of the frozen membrane fractions were resuspended in 35 mL of assay buffer at pH 7.4 using a POLYTRON (Kinematica A. G. Company, Littau, Switzerland) mixer at setting 6. After incubation at 37° C. for 30 minutes in a shaking water bath, the homogenate was centrifuged 40,000×g for 10 minutes at 4° C. The pellets were resuspended in fresh buffer and centrifuged 3 more times before final suspension for use in the assay.
(iii) [^3H]Ifenprodil Binding protocol:
Triplicate incubations were carried out in a volume of 0.5 mL in 1.3 mL polypropylene tubes (Marsh Biomedical Products Inc, Rochester, N.Y.) for 2 hours at room temperature. Incubations contained invention compounds, membranes (100-200 μg protein) and 4 nM [^3H]-ifenprodil in 20 mM HEPES-KOH buffer, pH 7.4 (assay buffer). Assays were started by addition of the membranes. Bound radioligand was separated by filtration under reduced pressure using a TOMTEC Mach II, 96-well cell harvester (Tomtec Inc, Orange, Conn.). Filtration was through Whatman GF/B glass fiber filters (Whatman Ltd., Maidstone, England), which had been soaked for at least 15 minutes in 0.3% polyethylenimine and allowed to air dry. The filters were rinsed with 3 mL of ice cold assay buffer within 6 seconds. Air was allowed to pass through the filters for an additional 10 seconds to remove residual moisture. The filter mat was supported on a cold (−20° C.) TEFLON (E. I. Du Pont de Nemours and Company, Wilmington, Del.) coated support, and filters from individual wells were separated and placed in Mini Poly-Q vials (Becklman Instruments Inc, Fullerton, Calif.) and filled with 4 mL of scintillation cocktail (Beckman Ready Protein^+). Radioactivity retained on the filter was determined by liquid scintillation spectrophotometry. Nonspecific binding was defined as the binding in the presence of […] ifenprodil. Ninety percent of the total binding of ifenprodil was specific binding at the NR1A/NR2B NMDA receptor subtype active site (as opposed to binding at a remote site).
Binding curves were statistically analyzed for a best 1- or 2-site competition fit using GRAPHPAD PRISM software (GraphPad Software Inc, San Diego, Calif.), a computer program used to analyze and graph scientific data. The normalized data was fitted by nonweighted nonlinear regression to either [formula]
Control data was entered as 100%, and no parameters were constrained. […]

Another assay relates to Male Wistar albino rats. In words: Formalin footpad test (FT). The class given is in vivo, rat. As to conditions: Table 1; PO; statistically significant decrease in late-phase pain behaviour versus vehicle. On the procedure: a. The Formalin Footpad Test (FT):
The FT model was used to test invention compounds for pain alleviating properties. The model produces a biphasic response in a test animal that results from a change in pain intensity over time. The FT model utilizes an injection of dilute formalin into the hindpaw of a rodent, which produces high intensity acute pain behaviors which are measured for the first 10 minutes post formalin injection (early phase responding). High intensity acute pain behaviors include rapid licking or biting of the injected hindpaw. The second phase is a prolonged period of lower intensity pain behaviors (late phase responding) which are measured from 11 to 45 minutes post-formalin injection.
Male Wistar albino rats (Harlan Sprague-Dawley Labs), weighing approximately 100 g at the time of testing, were used. Animals were group-housed and acclimated to the housing facility for 1 week prior to testing. Animals were maintained on a 12-hour/12-hour light/dark cycle and fed block rodent chow. From 4 to 8 animals were randomly assigned to either a vehicle-only dose group or a vehicle-plus invention compound treatment group on the day of testing.
The testing apparatus was a 16″×8″ box divided into two 8″×8″ testing chambers. Each testing chamber comprised a floor and 3 walls made of clear plastic mirrors, and a fourth wall which was clear plastic that allowed observation of animal behavior. The top of each chamber was covered with a metal screen during testing to prevent animals from climbing out of the chamber. Two animals were tested simultaneously in the adjoining boxes, but animals were unable to observe one another.
Animals were weighed and placed into holding cages (2 animals per cage) in the testing room prior to dosing. Following approximately 30 minutes of acclimation to the testing room, each pair of animals was administered orally (PO) by gavage a mixture of invention compound plus vehicle or vehicle alone. The treated animals were then placed in individual test chambers and allowed to acclimate to the chambers for at least 20 minutes. Then 50 μL of a 2.5% solution of formalin in vehicle was injected subcutaneously (SC) in the plantar surface of the left hindpaw from 30 to 120 minutes after administration of the invention compound. A session timer was started following the formalin injection, and the amount of time the animal spent licking or biting the injected paw was clocked with a hand-held stopwatch. The cumulative time spent engaging in a pain response was manually recorded at 5-minute intervals for 45 minutes post formalin injection. Early phase responding included Minutes 0 to 10, and late phase responding included Minutes 11 to 45. At the end of the testing period, animals were sacrificed using carbon dioxide. […]

T1 sequence (Q00960 27-1482, other chains not shown): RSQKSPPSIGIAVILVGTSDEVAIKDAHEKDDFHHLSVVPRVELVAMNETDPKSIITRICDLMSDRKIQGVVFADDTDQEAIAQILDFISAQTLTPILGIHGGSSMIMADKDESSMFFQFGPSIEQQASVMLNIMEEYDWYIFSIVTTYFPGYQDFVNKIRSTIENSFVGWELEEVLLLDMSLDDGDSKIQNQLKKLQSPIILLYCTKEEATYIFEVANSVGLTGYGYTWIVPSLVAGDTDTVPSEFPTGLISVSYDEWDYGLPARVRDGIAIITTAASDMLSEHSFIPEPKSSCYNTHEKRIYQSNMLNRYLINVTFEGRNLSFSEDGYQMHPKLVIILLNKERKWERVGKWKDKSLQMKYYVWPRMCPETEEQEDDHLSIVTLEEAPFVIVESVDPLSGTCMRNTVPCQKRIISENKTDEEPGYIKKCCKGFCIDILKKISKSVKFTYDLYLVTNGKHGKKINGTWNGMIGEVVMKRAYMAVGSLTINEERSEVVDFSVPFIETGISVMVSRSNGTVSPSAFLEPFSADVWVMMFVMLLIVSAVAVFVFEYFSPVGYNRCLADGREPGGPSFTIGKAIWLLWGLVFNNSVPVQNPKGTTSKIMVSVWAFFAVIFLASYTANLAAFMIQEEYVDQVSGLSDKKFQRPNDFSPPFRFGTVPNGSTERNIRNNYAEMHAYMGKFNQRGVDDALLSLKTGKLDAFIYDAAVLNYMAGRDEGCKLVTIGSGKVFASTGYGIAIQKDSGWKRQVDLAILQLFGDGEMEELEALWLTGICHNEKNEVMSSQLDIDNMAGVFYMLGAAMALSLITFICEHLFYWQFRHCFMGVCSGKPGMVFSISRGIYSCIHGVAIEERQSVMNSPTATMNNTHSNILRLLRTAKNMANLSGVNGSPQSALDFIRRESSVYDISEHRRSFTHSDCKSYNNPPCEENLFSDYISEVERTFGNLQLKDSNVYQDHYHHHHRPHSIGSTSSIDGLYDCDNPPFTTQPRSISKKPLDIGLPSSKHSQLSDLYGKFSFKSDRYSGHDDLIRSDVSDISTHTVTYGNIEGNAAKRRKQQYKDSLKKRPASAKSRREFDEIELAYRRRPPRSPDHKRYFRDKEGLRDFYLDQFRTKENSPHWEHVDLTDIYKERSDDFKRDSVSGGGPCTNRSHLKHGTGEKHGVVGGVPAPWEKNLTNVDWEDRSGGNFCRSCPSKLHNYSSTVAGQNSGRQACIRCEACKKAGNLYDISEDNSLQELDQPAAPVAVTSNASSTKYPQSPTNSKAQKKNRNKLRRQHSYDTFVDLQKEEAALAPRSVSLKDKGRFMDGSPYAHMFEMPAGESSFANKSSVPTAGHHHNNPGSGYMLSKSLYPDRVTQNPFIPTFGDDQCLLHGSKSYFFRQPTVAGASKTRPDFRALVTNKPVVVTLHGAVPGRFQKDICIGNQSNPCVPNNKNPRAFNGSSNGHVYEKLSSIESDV

As a reminder, the IC50 is the concentration that gives 50% inhibition. Regarding `O=c1[nH]c2ccc(C3=NOC(CN4CCC(Cc5ccccc5)CC4)C3)cc2o1` (racemic) [Example 1, 6-[5-(4-Benzylpiperidin-1-ylmethyl)-4,5-dihydroisoxazol-3-yl]-3H-benzoxazol-2-one], in assay [1], the 50% inhibitory concentration (IC50) is 0.033 µM. Moreover, the “FT (mg/kg), active dose” value in the assay with Male Wistar albino rats is recorded as greater than 10 mg/kg.

With `O=c1[nH]c2ccc(C3=NOC(CN4CCC(Cc5ccc(F)cc5)CC4)C3)cc2o1` (single isomer, unassigned; (-)) [Example 4b, (−)-6-{5-[4-(4-Fluorobenzyl)piperidin-1-ylmethyl]4,5-dihydroisoxazol-3-yl}-3H-benzoxazol-2-one], the IC50 in assay [1] turned out to be 0.28 µM. In addition, in the assay on Male Wistar albino rats, the “FT (mg/kg), active dose” value is on record as greater than 30 mg/kg.

These data come from patent US6642256B2, “Piperidine derivatives as subtype selective N-Methyl-D-Aspartate antagonists” (Warner-Lambert Company LLC, priority 2000, dated 2003).
